In DBAASP:
≈ marks a conversion by molar mass, not a printed value.

What was measured:
Assay in all cases: ≥ marks a high value that may be exact or a test limit, other limits are often not marked, values filed in µg/mL are converted to µM
[1] = system: Staphylococcus aureus NCTC 8325
[2] = system: Staphylococcus epidermidis KCTC 1917
[3] = system: Escherichia coli KCTC 1682
[4] = system: Pseudomonas aeruginosa KCTC 1637
[5] = system: Staphylococcus aureus KCTC 1621
[6] = system: Salmonella typhimurium KCTC 1926
[7] = system: Bacillus subtilis KCTC 3068
Candida albicans = system: Candida albicans
Staphylococcus aureus = system: Staphylococcus aureus
Escherichia coli = system: Escherichia coli
[8] = system: Pseudomonas aeruginosa ATCC 27853
[9] = system: Staphylococcus epidermidis ATCC 12228
[10] = system: Salmonella enterica subsp. enterica serovar Typhimurium ATCC 14028
[11] = system: Staphylococcus aureus ATCC 29213
[12] = system: Staphylococcus aureus ATCC 25923
Escherichia coli UB1005 = system: Escherichia coli UB1005
[13] = system: Escherichia coli ATCC 25922
[14] = system: Staphylococcus aureus ATCC 43300
[15] = system: Salmonella enterica subsp. enterica serovar Typhimurium C77-31

MIC [1] [µM]	MIC [2] [µM]	MIC [3] [µM]	MIC [4] [µM]	MIC [5] [µM]	MIC [6] [µM]	MIC [7] [µM]	other results	SMILES
13 (≈ 33.9 µg/mL)	–	–	–	–	–	–	–	CC[C@H](C)[C@@H]1NC(=O)[C@H](C)NC(=O)[C@@H](NC(=O)[C@H](Cc2ccccc2)NC(=O)[C@@H](NC(=O)[C@H](CCCCN)NC(=O)[C@@H]2CCCN2C(=O)[C@H](CC(C)C)NC(=O)[C@H](Cc2ccccc2)NC(=O)[C@H](CCCCN)NC(=O)[C@H](C)NC(=O)[C@H](C)NC(=O)[C@@H](NC(=O)CNC(=O)[C@H](C)NC(=O)[C@@H](NC(=O)[C@H](Cc2ccccc2)NC(=O)[C@@H]2CCCN2C(=O)[C@H](CC(C)C)NC(=O)[C@@H](N)Cc2ccccc2)[C@@H](C)CC)C(C)C)[C@@H](C)CC)CSSC[C@@H](C(=O)O)NC(=O)[C@H](CCCCN)NC(=O)[C@H](CCCCN)NC(=O)[C@H](CO)NC1=O [FLPFIAGVAAKFLPKIFCAISKKC]
25 (≈ 39.4 µg/mL)	–	–	–	–	–	–	–	CC[C@H](C)[C@H](NC(=O)[C@@H](NC(=O)[C@@H]1CCCN1C(=O)[C@H](CC(C)C)NC(=O)[C@@H](NC(=O)[C@@H](N)CO)[C@@H](C)CC)[C@@H](C)O)C(=O)N[C@H](C(=O)N[C@@H](CO)C(=O)N[C@@H](Cc1ccccc1)C(=O)N[C@@H](CC(C)C)C(=O)N[C@H](C(=O)N[C@@H](CCCCN)C(=O)N[C@@H](Cc1ccccc1)C(=O)N[C@@H](CC(C)C)C(N)=O)[C@@H](C)O)C(C)C [SILPTIVSFLTKFL]
–	8 (≈ 17.6 µg/mL)	4 (≈ 8.82 µg/mL)	4 (≈ 8.82 µg/mL)	4 (≈ 8.82 µg/mL)	2 (≈ 4.41 µg/mL)	4 (≈ 8.82 µg/mL)	–	CC[C@H](C)[C@H](NC(=O)[C@H](CCCN=C(N)N)NC(=O)CN)C(=O)N[C@@H](CCCCN)C(=O)N[C@@H](CCCN=C(N)N)C(=O)N[C@H](C(=O)N[C@@H](CCCN=C(N)N)C(=O)N[C@@H](CCCCN)C(=O)N[C@@H](CCCCN)C(=O)N[C@H](C(=O)N[C@@H](CCCCN)C(=O)N[C@@H](CCCCN)C(=O)N[C@@H](CC(C)C)C(=O)N[C@H](C(=O)N[C@@H](CCCCN)C(=O)N[C@@H](CCCCN)C(=O)N[C@@H](CC(C)C)C(=O)N[C@@H](CO)C(N)=O)[C@@H](C)CC)[C@@H](C)CC)[C@@H](C)CC [GRIKRIRKKIKKLIKKLS]
–	–	–	–	–	–	–	MIC (Candida albicans): > 200 µM; MIC (Staphylococcus aureus): > 200 µM; MIC (Escherichia coli): > 200 µM	CC[C@H](C)[C@H](NC(=O)[C@H](CCCCN)NC(=O)[C@H](CS)NC(=O)[C@H](C)NC(=O)[C@@H](NC(=O)[C@H](Cc1ccccc1)NC(=O)[C@H](CCC(=O)O)NC(=O)[C@H](CC(C)C)NC(=O)[C@H](CCC(=O)O)NC(=O)[C@@H](NC(=O)[C@H](CCCCN)NC(=O)[C@H](CCC(=O)O)NC(=O)[C@H](CC(C)C)NC(=O)[C@H](CC(N)=O)NC(=O)[C@H](CCCCN)NC(=O)[C@H](CC(C)C)NC(=O)[C@@H](NC(=O)[C@H](CO)NC(=O)[C@H](CC(C)C)NC(=O)[C@H](CCSC)NC(=O)[C@@H](N)CO)C(C)C)C(C)C)C(C)C)C(=O)N[C@@H](CC(N)=O)C(=O)N[C@@H](CCCCN)C(=O)N[C@@H](CCC(N)=O)C(=O)N[C@@H](CS)C(=O)O [SMLSVLKNLEKVELEFVACKINKQC]
–	4 (≈ 9.5 µg/mL)	8 (≈ 19 µg/mL)	16 (≈ 38 µg/mL)	4 (≈ 9.5 µg/mL)	8 (≈ 19 µg/mL)	4 (≈ 9.5 µg/mL)	–	CC[C@H](C)[C@H](N)C(=O)NCC(=O)N[C@@H](CCCCN)C(=O)N[C@@H](CCC(=O)O)C(=O)N[C@@H](Cc1ccccc1)C(=O)N[C@@H](CCCCN)C(=O)N[C@@H](CCCN=C(N)N)C(=O)N[C@H](C(=O)N[C@H](C(=O)N[C@@H](CCC(N)=O)C(=O)N[C@@H](CCCN=C(N)N)C(=O)N[C@H](C(=O)N[C@@H](CCCCN)C(=O)N[C@@H](CC(=O)O)C(=O)N[C@@H](Cc1ccccc1)C(=O)N[C@@H](CC(C)C)C(=O)N[C@@H](CCCN=C(N)N)C(=O)N[C@@H](CC(N)=O)C(=O)N[C@@H](CC(C)C)C(=O)O)[C@@H](C)CC)C(C)C)[C@@H](C)CC [IGKEFKRIVQRIKDFLRNL]
–	–	–	–	–	–	–	MIC [8]: > 128 µM; MIC [9]: > 128 µM; MIC [10]: > 128 µM; MIC [11]: > 128 µM; MIC [12]: > 128 µM; MIC (Escherichia coli UB1005): ≥ 128 µM; MIC [13]: > 128 µM; MIC [14]: > 128 µM; MIC [15]: ≥ 128 µM	CC[C@H](C)[C@H](N)C(=O)N[C@@H](CCCN=C(N)N)C(=O)N1CCC[C@H]1C(=O)N[C@H](C(=O)N[C@@H](CCCN=C(N)N)C(=O)N1CCC[C@H]1C(=O)O)[C@@H](C)CC [IRPIRP]
